Measurements as given in patent US20260137698A1, “CYCLIN-DEPENDENT KINASE 7 INHIBITORS” (JOINT STOCK COMPANY «BIOCAD», priority 2022, published 2026).
Where two headings read alike, the source gives them in different places.

Assays:
CDK7/Cyclin H/MNAT1 = CDK7/Cyclin H/MNAT1 (Homo sapiens, UniProt P50613); assay: Inhibition of CDK7/Cyclin H/MNAT1 kinase activity (ADP-Glo); type: biochemical
In short: (§1)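 ADP-Glo luminescence quantified ATP consumption after a 40-60 minute, 25° C. reaction with ATP plus CDKtide, Histone H1 or PDKtide, following a 10-minute compound–kinase preincubation in DTT-supplemented kinase buffer A. Compounds spanned 11 concentrations from 50 μM in 4-fold dilutions; IC50 fitted to a four-parameter model.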

CDK2/Cyclin A = CDK2/Cyclin A (Homo sapiens, UniProt P24941); assay: Inhibition of CDK2/Cyclin A kinase activity (ADP-Glo); type: biochemical
In short: as §1

CDK9/Cyclin K = CDK9/Cyclin K (Homo sapiens, UniProt P50750); assay: Inhibition of CDK9/Cyclin K kinase activity (ADP-Glo); type: biochemical
Sequence of CDK9/Cyclin K (P50750 whole entry): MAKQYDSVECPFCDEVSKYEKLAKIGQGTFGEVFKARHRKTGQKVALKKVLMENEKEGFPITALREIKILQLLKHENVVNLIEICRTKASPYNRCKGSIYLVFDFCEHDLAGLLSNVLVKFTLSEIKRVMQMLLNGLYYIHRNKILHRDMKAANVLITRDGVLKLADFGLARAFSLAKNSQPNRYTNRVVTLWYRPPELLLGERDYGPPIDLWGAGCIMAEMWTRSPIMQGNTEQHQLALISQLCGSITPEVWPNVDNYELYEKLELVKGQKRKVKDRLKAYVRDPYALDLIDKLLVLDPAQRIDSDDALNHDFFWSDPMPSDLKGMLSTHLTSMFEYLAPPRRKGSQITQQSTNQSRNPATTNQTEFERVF
Sequence of CDK9/Cyclin K (O75909 whole entry partner): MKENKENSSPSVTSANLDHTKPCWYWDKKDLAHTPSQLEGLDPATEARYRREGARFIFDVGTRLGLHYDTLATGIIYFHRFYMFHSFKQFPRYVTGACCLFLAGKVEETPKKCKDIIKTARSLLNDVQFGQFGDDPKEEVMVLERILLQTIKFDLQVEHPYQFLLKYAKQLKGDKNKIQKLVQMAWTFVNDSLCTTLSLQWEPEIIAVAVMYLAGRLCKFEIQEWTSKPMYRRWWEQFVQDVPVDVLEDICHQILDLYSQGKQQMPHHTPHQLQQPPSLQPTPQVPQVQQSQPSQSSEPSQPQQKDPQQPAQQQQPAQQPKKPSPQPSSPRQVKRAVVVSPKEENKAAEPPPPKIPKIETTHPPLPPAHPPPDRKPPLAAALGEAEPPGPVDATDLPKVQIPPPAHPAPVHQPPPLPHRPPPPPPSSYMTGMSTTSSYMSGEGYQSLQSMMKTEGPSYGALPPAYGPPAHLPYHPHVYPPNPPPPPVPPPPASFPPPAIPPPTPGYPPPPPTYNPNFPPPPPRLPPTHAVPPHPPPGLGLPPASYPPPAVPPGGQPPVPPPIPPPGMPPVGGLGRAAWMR
In short: as §1

[1] = system: MDA-MB-468 (triple negative breast cancer); assay: Antiproliferative assay on MDA-MB-468 cells (AlamarBlue, 96 h); type: cell-based; details: Homo sapiens, mean value from several measurements
[2] = system: NCl-H82 (small cell lung cancer); assay: Antiproliferative assay on NCl-H82 cells (AlamarBlue, 120 h); type: cell-based; details: mean value from several measurements
Procedure: The antiproliferative activity of CDK7 inhibitors according to the present invention was evaluated in a cell test using continuous cell cultures: MDA-MB-468 (triple negative breast cancer, ATCC® HTB-132™) and NCl-H82 (small cell lung cancer, ATCC® HTB-175™) using a viable AlamarBlue dye (Thermo Fisher Scientific Inc, order no. DAL1100). The cells were grown in DMEM (PanEco, order no. C330π) and RPMI-1640 (PanEco, order no. C330π), respectively. The basal growth medium was enriched with L-glutamine at a concentration of 2 mM (PanEco, order no. Φ032) and 10% fetal bovine serum (Gibco, order no. 16140-071). The night before measurement, MDA-MB-468 adherent cells were detached from plastic with a solution of trypsin-EDTA (PanEco, order no. Π039π), the solution was then inactivated by a DMEM complete medium, centrifuged at 1000 RPM (Eppendorf, 5804 R), a suspension of cells was prepared in a DMEM complete medium, introduced into 96-well culture plates (Corning Inc, order no. 3599) at 8×10^3 cells in 100 μl of medium per well. The next day, test compounds were dissolved in DMSO and diluted with a DMEM complete medium to a final concentration ranging from 50 μM to 10 pM. Diluted compounds in a volume of 50 μl were introduced into the plate wells with cells in triplicates (the final concentration of DMSO was no more than 1%) and incubated at 37° C. in an incubator with 5% CO2 for 96 hours. NCl-H82 suspension cell line was prepared on the day of the analysis. 10×10^3 cells in 100 μl of an RPMI-1640 complete medium were added to each well of a 96-well plate. The procedure for sample dilution is as described above. Cells with test compounds were incubated at 37° C. in an incubator with 5% CO2 for 120 hours. Following incubation, […] of AlamarBlue reagent (Thermo Fisher Scientific Inc., order no. DAL1100) was added to the wells, the contents of the plates were stirred in an orbital shaker (Biosan, Latvia), then further incubated for 5.5-6 hours at 37° C. in an incubator with 5% CO2. The number of viable cells was detected using the Infinite M200Pro microplate spectrophotometer (Tecan Group Ltd, Switzerland) by way of measuring a fluorescent signal at an excitation wavelength (λEx) of 540 nm and an emission wavelength (λEm) of 590 nm.
IC50 value was calculated using the Magellan software (Tecan Group Ltd, Switzerland) by approximating experimental points by four-parameter model with the optimization by Levenberg-Marquardt: […]

[3] = General cytotoxicity on primary differentiated HepaRG cells (72 h); type: cell-based; details: human, general toxicity, mean value from several measurements
In short: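 Test compounds spanning 200 μM to 0.2 nM were incubated for 72 hours with primary differentiated HepaRG cells. Cells had been kept one week in supplemented hepatic medium and seeded the night before at 25×10^3 per well, and viability was then measured.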

[4] = Passive membrane permeability through PAMPA artificial membrane, pH 7.4; type: in vitro ADME; details: pH 7.4, 10 μmol, 20 hours at room temperature, mean of multiple measurements, read-out: PAMPA passive permeability Pe
Procedure: Passive membrane permeability of the compounds described in the present invention was determined using the PAMPA (parallel artificial membrane permeability assay) model at pH 7.4.
We used a 96-well plate (Corning® BioCoat® Pre-coated PAMPA Plate System, order no. 353015), composed of acceptor and donor parts with cell membrane-modeling PVDF filter pre-impregnated with a lecithin-phospholipid bilayer. The substance (at a concentration of 10 μmol) in a 0.01 M phosphate buffer with pH 7.4 was introduced into a donor well of the plate, and pure buffer was introduced into an acceptor well; afterwards, the both parts were combined and incubated for 20 hours at room temperature so that the compound was redistributed between the two wells and the membrane. Verapamil (USP, USA, order no. 1711202) and propranolol (MCE LLC, USA, cat. no. HY-B0573/CS-2680) were used as control compounds with high and medium permeability. Samples were analyzed by reversed-phase HPLC with UV detection (Agilent 1260 chromatograph with UV detector) by determining their peak areas in the donor and acceptor wells.
Permeability (Pe, cm/s) and retention factor (R, %) in the lipid bilayer were calculated using the formula:
[formula] [formula] • Co is donor-well concentration of the substance at the initial moment of time t (μM); • CA (t) is acceptor-well concentration of the substance at time t (μM); • Vd is donor-well volume (0.3 ml); • Va is acceptor-well volume (0.15 ml).
[formula] • A is filter area (0.3 cm^2); • t is incubation time (72000 s);

[5] = mean value from several measurements, read-out: IC50 CDK7/Cyclin H/MNAT
[6] = mean value from several measurements, read-out: IC50 CDK2/Cyclin A
[7] = mean value from several measurements, read-out: IC50 CDK9/Cyclin K
[8] = mean of multiple measurement series, ATP 10 μM, read-out: CDK7/Cyclin H/MNAT1 IC50
[9] = mean of multiple measurement series, ATP 50 μM, read-out: CDK2/Cyclin A IC50
[10] = mean of multiple measurement series, ATP 50 μM, read-out: CDK9/Cyclin K IC50

Sequence of CDK7/Cyclin H/MNAT1 (P50613 whole entry): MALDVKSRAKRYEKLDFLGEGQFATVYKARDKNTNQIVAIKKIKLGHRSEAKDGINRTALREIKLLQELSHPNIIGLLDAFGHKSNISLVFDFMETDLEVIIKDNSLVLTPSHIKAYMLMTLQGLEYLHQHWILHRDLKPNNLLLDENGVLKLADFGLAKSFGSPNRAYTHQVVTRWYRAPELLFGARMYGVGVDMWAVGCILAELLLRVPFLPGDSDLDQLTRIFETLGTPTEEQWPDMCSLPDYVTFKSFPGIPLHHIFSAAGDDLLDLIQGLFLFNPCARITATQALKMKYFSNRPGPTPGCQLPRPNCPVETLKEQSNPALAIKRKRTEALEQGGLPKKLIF
Sequence of CDK7/Cyclin H/MNAT1 (P51946 whole entry partner): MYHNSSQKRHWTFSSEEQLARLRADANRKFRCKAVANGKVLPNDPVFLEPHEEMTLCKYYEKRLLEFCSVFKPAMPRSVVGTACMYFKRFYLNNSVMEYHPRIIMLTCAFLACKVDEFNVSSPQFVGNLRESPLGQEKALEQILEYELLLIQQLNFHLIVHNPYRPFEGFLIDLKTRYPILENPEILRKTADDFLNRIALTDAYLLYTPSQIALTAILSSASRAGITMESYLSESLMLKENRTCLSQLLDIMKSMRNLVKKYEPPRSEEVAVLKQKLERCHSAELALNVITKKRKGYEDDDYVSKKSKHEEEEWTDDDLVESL
Sequence of CDK7/Cyclin H/MNAT1 (P51948 whole entry partner): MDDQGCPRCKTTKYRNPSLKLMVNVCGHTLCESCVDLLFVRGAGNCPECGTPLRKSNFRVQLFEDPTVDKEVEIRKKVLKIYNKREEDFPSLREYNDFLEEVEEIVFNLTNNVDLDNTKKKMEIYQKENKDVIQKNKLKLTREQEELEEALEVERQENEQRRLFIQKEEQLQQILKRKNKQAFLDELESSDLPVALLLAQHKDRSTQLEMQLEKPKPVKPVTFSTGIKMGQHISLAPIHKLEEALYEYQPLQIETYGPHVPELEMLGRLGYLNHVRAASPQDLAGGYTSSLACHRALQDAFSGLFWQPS

Structure (SMILES) | IC50 (CDK7/Cyclin H/MNAT1; [5]) [nM] | IC50 (CDK2/Cyclin A; [6]) [nM] | IC50 (CDK9/Cyclin K; [7]) [nM] | IC50 [1] [nM] | IC50 [2] [nM] | CC50 at 72 h [3] [nM] | IC50 (CDK7/Cyclin H/MNAT1; [8]) [nM] | IC50 (CDK2/Cyclin A; [9]) [nM] | IC50 (CDK9/Cyclin K; [10]) [nM] | Papp at 20 h, 10 μmol [4] [×10⁻⁶ cm/s]
CCOC(=O)c1cc(-c2nc(N[C@H]3CCCNC3)ncc2C(F)(F)F)c[nH]1 [CDK7_1020, ethyl 4-(2-{[(3S)-piperidin-3-yl]amino}-5-(trifluoromethyl)py-rimidin-4-yl)-1H-pyrrole-2-carboxylate] | < 5 | > 200 | 5 to 50 | 10 to 100 | 10 to 100 | > 2000 |  |  |  | 
Cn1cc(-n2ccc3c(-c4nc(N[C@H]5CCCNC5)ncc4C(F)(F)F)c[nH]c3c2=O)ccc1=O [CDK7_1052, 1-methyl-5-[7-oxo-3-(2-{[(3S)-piperidin-3-yl]amino}-5-(trifluoromethyl)py-rimidin-4-yl)-1H,6H,7H-pyrrolo[2,3-c]pyridin-6-yl]-1,2-dihydropyridin-2-one] | < 5 | > 200 | > 200 | 100 to 1000 | 100 to 1000 | > 2000 | < 5 | 12400 | 479 | 
FC(F)(F)c1cnc(N[C@H]2CCCNC2)nc1-c1c[nH]c(-c2ccccn2)c1 [CDK7_1061, N-[(3S)-piperidin-3-yl]-4-[5-(pyridin-2-yl)-1H-pyrrol-3-yl]-5-(trifluoromethyl)py-rimidin-2-amine] | 5 to 50 |  | 5 to 50 | 10 to 100 | 10 to 100 | 500 to 2000 |  |  |  | 1 to 5
FC(F)(F)c1cnc(N[C@H]2CCCNC2)nc1-c1c[nH]c(-c2ncccn2)c1 [CDK7_1062, N-[(3S)-piperidin-3-yl]-4-[5-(pyrimidin-2-yl)-1H-pyrrol-3-yl]-5-(trifluoromethyl)py-rimidin-2-amine] | < 5 | > 200 | 5 to 50 | 10 to 100 | 10 to 100 | 100 to 500 |  |  |  | 
Cn1cc(-n2ccc3c(-c4nc(N[C@H]5CCC6(CC6)NC5)ncc4C(F)(F)F)c[nH]c3c2=O)cn1 [CDK7_1199, 3-(2-{[(6S)-4-azaspiro[2.5]octan-6-yl]amino}-5-(trifluoromethyl)py-rimidin-4-yl)-6-(1-methyl-1H-pyrazol-4-yl)-1H,6H,7H-pyrrolo[2,3-c]pyridin-7-one] | < 5 | > 200 | > 200 | < 10 | < 10 |  | < 5 | 3390 | 843 | 
Cc1nnc2n1CCCc1c(-c3nc(N[C@H]4CCCNC4)ncc3C(F)(F)F)c[nH]c1-2 [CDK7_1236, 4-{5-methyl-3,4,6,13-tetraazatricyclo[8.3.0.0^2,^6]trideca-1(10),2,4,11-tetraen-11-yl}-N-[(3S)-piperidin-3-yl]-5-(trifluoromethyl)py-rimidin-2-amine] | < 5 | > 200 | 50 to 200 | 10 to 100 | 10 to 100 | > 2000 |  |  |  | 
COCCN1CCCc2c(-c3nc(N[C@H]4CCC(C)(C)NC4)ncc3C(F)(F)F)c[nH]c2C1=O [CDK7_1268, 3-(2-{[(3S)-6,6-dimethylpiperidin-3-yl]amino}-5-(trifluoromethyl)py-rimidin-4-yl)-7-(2-methoxyethyl)-1H,4H,5H,6H,7H, 8H-pyrrolo[2,3-c]azepin-8-one] |  | > 200 | > 200 | 10 to 100 | 10 to 100 | > 2000 |  |  |  | 
